From PubChem BioAssay AID330 (DTP/NCI, 2004)
Several values for one entry are separate records, joined by “and”; a condition that tells them apart may be missing. Equal values may be shown once. Toxic doses and inconclusive results are not listed. Rule for the calls: active = survival T/C of 150% or more; inactive = T/C below 125% in these data.

System: P388 leukemia ip, CD2F1 mice, survival T/C
Assay: NCI In Vivo Anticancer Drug Screen. Data for tumor model P388 Leukemia (intraperitoneal) in CD2F1 (CDF1) mice
Conditions: endpoint: median survival time, higher = longer survival
Procedure, shortened: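 Mice carrying the transplanted tumor received test compound or vehicle. Survival was recorded in each group, and the value is the treated-group measurement divided by that of the vehicle-treated control group.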

[1] = dose: 50.0 mg/kg/injection, schedule: Q01DX005 (ip), vehicle: saline with Tween-80
[2] = dose: 100.0 mg/kg/injection, schedule: Q01DX005 (ip), vehicle: saline with Tween-80
[3] = dose: 200.0 mg/kg/injection, schedule: Q01DX005 (ip), vehicle: saline with Tween-80
[4] = dose: 60.0 mg/kg/injection, schedule: Q01DX005 (ip), vehicle: saline with Tween-80
[5] = dose: 120.0 mg/kg/injection, schedule: Q01DX005 (ip), vehicle: saline with Tween-80
[6] = dose: 240.0 mg/kg/injection, schedule: Q01DX005 (ip), vehicle: saline with Tween-80
[7] = dose: 100.0 mg/kg/injection, schedule: Q01DX001 (ip), vehicle: saline with Tween-80
[8] = dose: 100.0 mg/kg/injection, schedule: Q04DX003 (ip), vehicle: saline
[9] = dose: 200.0 mg/kg/injection, schedule: Q04DX003 (ip), vehicle: saline
[10] = dose: 50.0 mg/kg/injection, schedule: Q01DX009 (ip), vehicle: saline with Tween-80
[11] = dose: 100.0 mg/kg/injection, schedule: Q01DX009 (ip), vehicle: saline with Tween-80
[12] = dose: 200.0 mg/kg/injection, schedule: Q01DX009 (ip), vehicle: saline with Tween-80
[13] = dose: 12.5 mg/kg/injection, schedule: Q01DX009 (ip), vehicle: saline with Tween-80
[14] = dose: 25.0 mg/kg/injection, schedule: Q01DX009 (ip), vehicle: saline with Tween-80
[15] = dose: 100.0 mg/kg/injection, schedule: Q04DX002 (ip), vehicle: Klucel (hydroxypropylcellulose) (HPC)
[16] = dose: 400.0 mg/kg/injection, schedule: Q04DX002 (ip), vehicle: Klucel (hydroxypropylcellulose) (HPC)
[17] = dose: 50.0 mg/kg/injection, schedule: Q01DX005 (ip), vehicle: saline
[18] = dose: 100.0 mg/kg/injection, schedule: Q01DX005 (ip), vehicle: saline
[19] = dose: 200.0 mg/kg/injection, schedule: Q01DX005 (ip), vehicle: saline
[20] = dose: 60.0 mg/kg/injection, schedule: Q01DX005 (ip), vehicle: saline

Measured: T/C

O=C1c2cccnc2C(=O)C2CC3=C(CCCC3)CC12 (stereo not given)
inactive: [1] 100 % of control | [2] 100 % of control | [3] 100 % of control

COc1nccn2c(C)nnc12
inactive: dose: 100.0 mg/kg/injection, schedule: Q01DX001 (ip), vehicle: Klucel (hydroxypropylcellulose) (HPC) 100 % of control | dose: 200.0 mg/kg/injection, schedule: Q01DX001 (ip), vehicle: Klucel (hydroxypropylcellulose) (HPC) 100 % of control

CC(CC(C)C1CO1)C(=O)C(C)S(=O)(=O)c1ccccc1 (stereo not given) (tested in a mixture with another compound)
inactive: [1] 104 % of control | [2] 88 % of control | [3] 102 % of control

OCCN1CCN(C2=Nc3cccnc3Nc3cscc32)CC1
inactive: [4] 101 % of control | [5] 111 % of control | [6] 96 % of control

CCN(CC)CCn1cnc2c(=S)[nH]c(=S)[nH]c21
inactive: [7] 95 % of control | dose: 200.0 mg/kg/injection, schedule: Q01DX001 (ip), vehicle: saline with Tween-80 97 % of control | dose: 400.0 mg/kg/injection, schedule: Q01DX001 (ip), vehicle: saline with Tween-80 97 % of control

O=c1[nH]cnc2cc3c(cc12)nc1n3CCOC1
inactive: [8] 109 % of control | [9] 105 % of control

CS(=O)(=O)OCC1OC(n2ncc(=O)[nH]c2=O)C(O)C1O (stereo not given)
inactive: [10] 100 % of control | [11] 95 % of control | [12] 101 % of control

Nc1ncc2c(=O)c3c(ccc4ccccc43)oc2n1
inactive: [13] 96 % of control | [14] 98 % of control | [10] 90 % of control | [11] 87 % of control

Cc1c(C(N)=O)c(NC=O)n(-c2ccccc2)c1C
inactive: [4] 100 % of control | [5] 99 % of control | [6] 93 % of control

C/C=C/Cc1n[nH]c(=O)c2c(C)[nH]nc12
inactive: dose: 25.0 mg/kg/injection, schedule: Q04DX002 (ip), vehicle: Klucel (hydroxypropylcellulose) (HPC) 105 % of control | dose: 50.0 mg/kg/injection, schedule: Q04DX002 (ip), vehicle: Klucel (hydroxypropylcellulose) (HPC) 103 % of control | [15] 104 % of control and 90 % of control

CN1CCN(C(=O)c2cccc3cccc(C(=O)O)c23)CC1
inactive: dose: 60.0 mg/kg/injection, schedule: Q01DX005 (ip), vehicle: water 103 % of control | dose: 120.0 mg/kg/injection, schedule: Q01DX005 (ip), vehicle: water 93 % of control | dose: 240.0 mg/kg/injection, schedule: Q01DX005 (ip), vehicle: water 100 % of control

CC(=O)C1C(c2ccccc2)SC(c2ccccc2)CC1(C)O (stereo not given)
inactive: [15] 96 % of control | dose: 200.0 mg/kg/injection, schedule: Q04DX002 (ip), vehicle: Klucel (hydroxypropylcellulose) (HPC) 94 % of control | [16] 87 % of control

COP(=O)(OC)/C(C)=N/NS(=O)(=O)c1ccc(C)cc1
inactive: dose: 12.5 mg/kg/injection, schedule: Q01DX009 (ip), vehicle: other 91 % of control | dose: 25.0 mg/kg/injection, schedule: Q01DX009 (ip), vehicle: other 91 % of control | dose: 50.0 mg/kg/injection, schedule: Q01DX009 (ip), vehicle: other 99 % of control | dose: 100.0 mg/kg/injection, schedule: Q01DX009 (ip), vehicle: other 100 % of control | dose: 200.0 mg/kg/injection, schedule: Q01DX009 (ip), vehicle: other 98 % of control | dose: 400.0 mg/kg/injection, schedule: Q01DX009 (ip), vehicle: other 94 % of control

N#CC(OC(=O)c1cccc(C(=O)OC(C#N)(C(F)(F)F)C(F)(F)F)c1Sc1ccccc1)(C(F)(F)F)C(F)(F)F
inactive: [15] 109 % of control | [16] 115 % of control

CCCCC(=C=NCCCN(C)C)CC
inactive: [17] 99 % of control | [18] 92 % of control | [19] 101 % of control

COC(=O)c1ccc(/C=C/C#N)cc1
inactive: dose: 50.0 mg/kg/injection, schedule: Q01DX009 (ip), vehicle: saline 100 % of control | dose: 100.0 mg/kg/injection, schedule: Q01DX009 (ip), vehicle: saline 102 % of control | dose: 200.0 mg/kg/injection, schedule: Q01DX009 (ip), vehicle: saline 97 % of control

CCCOC1(C)Oc2cc3c(cc2C(c2cc(OC)c(OC)c(OC)c2)C1C)OCO3 (stereo not given)
inactive: dose: 60.0 mg/kg/injection, schedule: Q01DX005 (ip), vehicle: Klucel (hydroxypropylcellulose) (HPC) 97 % of control | dose: 120.0 mg/kg/injection, schedule: Q01DX005 (ip), vehicle: Klucel (hydroxypropylcellulose) (HPC) 96 % of control | dose: 240.0 mg/kg/injection, schedule: Q01DX005 (ip), vehicle: Klucel (hydroxypropylcellulose) (HPC) 99 % of control

CC(=O)NS(=O)(=O)c1ccc(N=NC2=C(O)C(c3ccccc3)N(c3ccccc3)C2=O)cc1 (stereo not given)
inactive: [4] 96 % of control | [5] 91 % of control

CC1=Nc2cccnc2N(C)N1C
inactive: dose: 15.0 mg/kg/injection, schedule: Q01DX005 (ip), vehicle: saline 94 % of control | dose: 30.0 mg/kg/injection, schedule: Q01DX005 (ip), vehicle: saline 98 % of control | [20] 98 % of control and 106 % of control

O=C(Nc1cccnc1)c1ccc([N+](=O)[O-])s1
inactive: dose: 25.0 mg/kg/injection, schedule: Q01DX005 (ip), vehicle: saline 90 % of control | [17] 87 % of control | [18] 92 % of control | [19] 103 % of control | dose: 400.0 mg/kg/injection, schedule: Q01DX005 (ip), vehicle: saline 121 % of control

COC1=CC2(C=CC1=O)CCC(=O)O2 (stereo not given)
inactive: dose: 12.5 mg/kg/injection, schedule: Q01DX005 (ip), vehicle: saline with Tween-80 119 % of control | dose: 25.0 mg/kg/injection, schedule: Q01DX005 (ip), vehicle: saline with Tween-80 111 % of control | [1] 115 % of control and 113 % of control | [2] 108 % of control

BrC1CC2(OCCO2)C(Br)CC12OCCO2 (stereo not given)
inactive: dose: 25.0 mg/kg/injection, schedule: Q04DX003 (ip), vehicle: saline 99 % of control | dose: 50.0 mg/kg/injection, schedule: Q04DX003 (ip), vehicle: saline 100 % of control | [8] 118 % of control | [9] 103 % of control | dose: 400.0 mg/kg/injection, schedule: Q04DX003 (ip), vehicle: saline 103 % of control

C=C(NC(C)=O)C(=O)O
inactive: dose: 6.25 mg/kg/injection, schedule: Q01DX009 (ip), vehicle: saline with Tween-80 103 % of control | [13] 101 % of control and 86 % of control | dose: 12.5 mg/kg/injection, schedule: Q04DX003 (ip), vehicle: saline with Tween-80 104 % of control | [14] 108 % of control | dose: 25.0 mg/kg/injection, schedule: Q04DX003 (ip), vehicle: saline with Tween-80 103 % of control | dose: 50.0 mg/kg/injection, schedule: Q04DX003 (ip), vehicle: saline with Tween-80 101 % of control | [7] 101 % of control

CC1(c2ccccc2)OC1(C)c1ccccc1 (stereo not given)
inactive: dose: 50.0 mg/kg/injection, schedule: Q01DX009 (ip), vehicle: Klucel (hydroxypropylcellulose) (HPC) 103 % of control | dose: 100.0 mg/kg/injection, schedule: Q01DX009 (ip), vehicle: Klucel (hydroxypropylcellulose) (HPC) 103 % of control | dose: 200.0 mg/kg/injection, schedule: Q01DX009 (ip), vehicle: Klucel (hydroxypropylcellulose) (HPC) 103 % of control

COc1ccc(N=C([Se])CCC(C)C)cc1
inactive: dose: 6.25 mg/kg/injection, schedule: Q01DX009 (ip), vehicle: Klucel (hydroxypropylcellulose) (HPC) 111 % of control | dose: 12.5 mg/kg/injection, schedule: Q01DX009 (ip), vehicle: Klucel (hydroxypropylcellulose) (HPC) 106 % of control | dose: 25.0 mg/kg/injection, schedule: Q01DX009 (ip), vehicle: Klucel (hydroxypropylcellulose) (HPC) 108 % of control

CCCCCCCCCOCC(=O)O
inactive: [10] 100 % of control | [11] 99 % of control | [12] 95 % of control

C1OC2C1OC1COC12 (stereo not given)
inactive: [20] 108 % of control | dose: 120.0 mg/kg/injection, schedule: Q01DX005 (ip), vehicle: saline 100 % of control | dose: 240.0 mg/kg/injection, schedule: Q01DX005 (ip), vehicle: saline 107 % of control
